The subject of assay [1] is wild type MEF cells. Kind of assay: Viability assay of MEF cells (AlamarBlue). Type of assay: cell-based, mouse. To be noted: 0-1000 nM 5FdUR, 4 days, AlamarBlue fluorescence normalized to untreated. The protocol: (§1) Wild type and ung^(−/−) MEF cells were seeded onto 96-well plates in DMEM+F12 HAM Mix (Sigma) supplemented with 10% Fetal Bovine Serum (Gibco), 1% Penicillin+Streptomycin (Gibco), 0.5 mM Sodium Pyruvate (Gibco), 1% 100× Non-Essential Amino Acids (Gibco). 2000 cells were seeded in a well containing 100 μl medium. After 4 days 10 μl AlamarBlue (Biosource) was added, incubated for 3 hours at 37° C. and fluorescence was measured by Victor2 140 Multilabel counter at 485 nm excitation and 530 nm emission. Samples in triplicates were treated with different concentration of 5FdUR (0, 1, 10, 20, 50, 100, 250, 500, 1000 nM) and viability was assessed. Measurements were repeated three-times. Fluorescence intensity values measured from the wells was normalized to the intensity detected in samples grown in lack of 5FdUR.

Assay [2] relates to ung−/− MEF cells. The assay is described as follows: Viability assay of MEF cells (AlamarBlue). Type of assay: cell-based, mouse. As to conditions: 0-1000 nM 5FdUR, 4 days, AlamarBlue fluorescence normalized to untreated. How it is done: as §1
Assay [3] concerns wild-type mouse embryonic fibroblast (MEF) cells. The assay is described as follows: Uracil content of MEF genomial DNA by real-time PCR with Pfu WT-pol and Pfu V93Q-pol. Type of assay: cell-based. To be noted: 100 μM 5FdUR, 4 days, mean ± SEM, practically undetectable. The protocol:
(§2) Mouse Embryonic Fibroblast (MEF) genomial DNA. Wild type and ung^(−/−) MEF cells (34) were a generous gift from Dr. Hilde Nilsen, University of Oslo. MEF cells were cultured in DMEM+F12 HAM Mix (Sigma) supplemented with 10% Fetal Bovine Serum (Gibco), 1% Penicillin+Streptomycin (Gibco), 0.5 mM Sodium Pyruvate (Gibco), 1% 100× Non-Essential Amino Acids (Gibco). To obtain confluent cells 10^6 cells/T-75 flask were seeded. […] Genomial DNA was purified by MasterPure DNA Purification Kit (Epicentre). DNA was digested by EcoRI restriction enzyme (New England Biolabs) and separated on 1% agarose gel. […]
(§3) Synthetic and physiological samples purified from agarose gels were applied in series of either 2-fold or 10-fold dilution steps. […] Melting point of the products was measured after a final denaturation at 95° C. for 1 min by heating from 55° C. to 95° C. […] Non-template control was measured in all cases. […] Cq values were determined after the manual setting of threshold level in the early exponential phase of the PCR amplification. […] Efficiency was calculated from the following equation: E=10^(−1/M)−1, where M is the slope of the linear curve and E is the efficiency. […] At each measured CqWt value the shift between the linear curves of the reference and the putatively uracil containing samples was determined. […]

Assay [4] concerns ung−/− mouse embryonic fibroblast (MEF) cells. The description is as above. The class given is cell-based. As to conditions: 100 μM 5FdUR, 4 days, mean ± SEM. How it is done:
as §2, §3

Assay [5] concerns BL21(DE3)ung-151 E. coli cells. Kind of assay: Uracil content of E. coli genomial DNA by real-time PCR with Pfu WT-pol and Pfu V93Q-pol. Type of assay: cell-based, Escherichia coli. As to conditions: early log phase (OD600=0.5), mean ± SEM, untreated 537±37. How it is done:
Escherichia coli genomial DNA. XL1-blue, BL21(DE3)ung-151 and CJ236 E. coli strains were propagated in LB media at 37° C. and were harvested at the early log phase (OD600=0.5) or at saturated phase (overnight culture). BL21(DE3)ung-151 cells grown in the presence of 30.7 or 61.3 μM 5-fluoro-2′-deoxyuridine (5FdUR) (Sigma-Aldrich) were harvested at the early log phase. Genomial DNA was purified by MasterPure DNA Purification Kit (Epicentre) following the instructions of the manufacturer. The DNA was digested by NdeI restriction enzyme (New England Biolabs) and was separated on 1% agarose gel. […]
as §3
(In general: Real-time PCR tracks product formation cycle by cycle.)

Consider `O=c1[nH]c(=O)n([C@H]2C[C@H](O)[C@@H](CO)O2)cc1F` [5FdUR, 5-fluoro-2′-deoxyuridine], for which the viability result in assay [1] and in assay [2] was “significant decrease in viability” in each case. Moreover, the “uracil content of genomial DNA” value in assay [3] amounted to 40±38 deoxyuridine/million dNMP; in assay [4] it was 341±87 deoxyuridine/million dNMP; in assay [5] (30.7 μM 5FdUR), 653±55 deoxyuridine/million dNMP; in assay [5] (61.3 μM 5FdUR), 770±54 deoxyuridine/million dNMP.

(Values after US20130071848A1 (priority 2011, published 2013).)
